Source: US4550186A, “Binuclear copper (II) carboxylates formed from amine-carboxyboranes” (Duke University, priority 1983, dated 1985)

Columns and labels:
[1] = molecular target: T1, ribosomal ribonucleic acid polymerase (Mus musculus, UniProt O35134+P70700); assay: In vitro ribosomal ribonucleic acid polymerase activity; format: biochemical; conditions: 0.25 to 1.0 mM
T1 construct: enzymes isolated from nuclei; endogenous in cells; host or cells: Ehrlich ascites tumor cell nuclei, ammonium sulfate fraction
T1 sequence (P52432 whole entry): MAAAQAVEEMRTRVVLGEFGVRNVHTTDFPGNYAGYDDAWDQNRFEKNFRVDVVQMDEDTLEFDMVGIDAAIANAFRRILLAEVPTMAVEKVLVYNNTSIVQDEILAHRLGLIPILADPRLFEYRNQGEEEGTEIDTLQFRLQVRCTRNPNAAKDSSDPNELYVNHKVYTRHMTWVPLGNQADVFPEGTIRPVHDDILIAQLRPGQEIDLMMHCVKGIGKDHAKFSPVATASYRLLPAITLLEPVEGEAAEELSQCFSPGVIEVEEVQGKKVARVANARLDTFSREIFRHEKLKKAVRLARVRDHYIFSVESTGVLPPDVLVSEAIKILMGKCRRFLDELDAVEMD
T1 sequence (Q791N7 whole entry, further chain): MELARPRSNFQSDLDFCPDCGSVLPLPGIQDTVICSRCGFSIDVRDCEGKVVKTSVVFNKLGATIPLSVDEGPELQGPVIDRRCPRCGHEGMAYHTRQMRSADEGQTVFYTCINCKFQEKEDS
T1 sequence (P97304 whole entry, further chain): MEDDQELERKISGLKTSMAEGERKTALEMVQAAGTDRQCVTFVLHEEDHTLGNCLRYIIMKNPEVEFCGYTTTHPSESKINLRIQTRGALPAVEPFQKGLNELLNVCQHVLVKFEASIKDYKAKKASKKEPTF
T1 sequence (Q78WZ7 whole entry, further chain): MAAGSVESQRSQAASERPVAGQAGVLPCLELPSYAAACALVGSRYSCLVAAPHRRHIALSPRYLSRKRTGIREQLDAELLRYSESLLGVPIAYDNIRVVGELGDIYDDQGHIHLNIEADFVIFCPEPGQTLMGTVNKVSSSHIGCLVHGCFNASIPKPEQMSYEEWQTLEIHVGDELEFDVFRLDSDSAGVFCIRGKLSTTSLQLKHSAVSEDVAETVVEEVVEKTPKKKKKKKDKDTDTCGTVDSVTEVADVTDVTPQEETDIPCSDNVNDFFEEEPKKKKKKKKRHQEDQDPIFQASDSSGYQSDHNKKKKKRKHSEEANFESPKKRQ
T1 sequence (P70700 whole entry): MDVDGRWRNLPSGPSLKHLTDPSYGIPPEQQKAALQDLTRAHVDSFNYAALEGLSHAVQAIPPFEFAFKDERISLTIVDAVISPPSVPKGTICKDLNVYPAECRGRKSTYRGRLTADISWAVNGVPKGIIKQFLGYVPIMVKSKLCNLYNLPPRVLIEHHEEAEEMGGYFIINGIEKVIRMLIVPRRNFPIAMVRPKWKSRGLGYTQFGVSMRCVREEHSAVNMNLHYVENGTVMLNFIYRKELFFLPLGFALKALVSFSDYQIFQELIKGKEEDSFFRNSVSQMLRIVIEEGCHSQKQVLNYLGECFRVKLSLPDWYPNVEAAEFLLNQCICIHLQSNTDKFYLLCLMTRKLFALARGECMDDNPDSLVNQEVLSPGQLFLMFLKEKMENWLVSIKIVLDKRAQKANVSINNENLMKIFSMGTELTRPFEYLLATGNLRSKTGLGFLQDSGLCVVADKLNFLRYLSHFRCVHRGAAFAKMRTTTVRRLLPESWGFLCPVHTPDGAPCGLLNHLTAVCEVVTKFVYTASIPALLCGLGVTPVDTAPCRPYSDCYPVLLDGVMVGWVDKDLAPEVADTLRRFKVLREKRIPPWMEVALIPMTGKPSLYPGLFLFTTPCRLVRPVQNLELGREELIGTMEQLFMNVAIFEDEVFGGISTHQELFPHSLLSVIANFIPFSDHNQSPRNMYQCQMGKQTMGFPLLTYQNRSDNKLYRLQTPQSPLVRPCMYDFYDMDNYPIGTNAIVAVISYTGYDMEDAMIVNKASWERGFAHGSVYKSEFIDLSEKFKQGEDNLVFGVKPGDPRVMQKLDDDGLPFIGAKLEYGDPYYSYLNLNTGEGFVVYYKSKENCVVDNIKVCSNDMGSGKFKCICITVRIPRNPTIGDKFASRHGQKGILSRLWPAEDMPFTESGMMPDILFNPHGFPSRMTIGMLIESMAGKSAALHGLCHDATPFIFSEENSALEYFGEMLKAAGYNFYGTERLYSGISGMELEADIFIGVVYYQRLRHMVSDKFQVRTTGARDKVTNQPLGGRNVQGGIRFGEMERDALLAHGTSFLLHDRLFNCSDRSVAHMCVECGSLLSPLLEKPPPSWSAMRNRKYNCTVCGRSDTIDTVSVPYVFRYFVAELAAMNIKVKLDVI
T1 sequence (O35134 whole entry): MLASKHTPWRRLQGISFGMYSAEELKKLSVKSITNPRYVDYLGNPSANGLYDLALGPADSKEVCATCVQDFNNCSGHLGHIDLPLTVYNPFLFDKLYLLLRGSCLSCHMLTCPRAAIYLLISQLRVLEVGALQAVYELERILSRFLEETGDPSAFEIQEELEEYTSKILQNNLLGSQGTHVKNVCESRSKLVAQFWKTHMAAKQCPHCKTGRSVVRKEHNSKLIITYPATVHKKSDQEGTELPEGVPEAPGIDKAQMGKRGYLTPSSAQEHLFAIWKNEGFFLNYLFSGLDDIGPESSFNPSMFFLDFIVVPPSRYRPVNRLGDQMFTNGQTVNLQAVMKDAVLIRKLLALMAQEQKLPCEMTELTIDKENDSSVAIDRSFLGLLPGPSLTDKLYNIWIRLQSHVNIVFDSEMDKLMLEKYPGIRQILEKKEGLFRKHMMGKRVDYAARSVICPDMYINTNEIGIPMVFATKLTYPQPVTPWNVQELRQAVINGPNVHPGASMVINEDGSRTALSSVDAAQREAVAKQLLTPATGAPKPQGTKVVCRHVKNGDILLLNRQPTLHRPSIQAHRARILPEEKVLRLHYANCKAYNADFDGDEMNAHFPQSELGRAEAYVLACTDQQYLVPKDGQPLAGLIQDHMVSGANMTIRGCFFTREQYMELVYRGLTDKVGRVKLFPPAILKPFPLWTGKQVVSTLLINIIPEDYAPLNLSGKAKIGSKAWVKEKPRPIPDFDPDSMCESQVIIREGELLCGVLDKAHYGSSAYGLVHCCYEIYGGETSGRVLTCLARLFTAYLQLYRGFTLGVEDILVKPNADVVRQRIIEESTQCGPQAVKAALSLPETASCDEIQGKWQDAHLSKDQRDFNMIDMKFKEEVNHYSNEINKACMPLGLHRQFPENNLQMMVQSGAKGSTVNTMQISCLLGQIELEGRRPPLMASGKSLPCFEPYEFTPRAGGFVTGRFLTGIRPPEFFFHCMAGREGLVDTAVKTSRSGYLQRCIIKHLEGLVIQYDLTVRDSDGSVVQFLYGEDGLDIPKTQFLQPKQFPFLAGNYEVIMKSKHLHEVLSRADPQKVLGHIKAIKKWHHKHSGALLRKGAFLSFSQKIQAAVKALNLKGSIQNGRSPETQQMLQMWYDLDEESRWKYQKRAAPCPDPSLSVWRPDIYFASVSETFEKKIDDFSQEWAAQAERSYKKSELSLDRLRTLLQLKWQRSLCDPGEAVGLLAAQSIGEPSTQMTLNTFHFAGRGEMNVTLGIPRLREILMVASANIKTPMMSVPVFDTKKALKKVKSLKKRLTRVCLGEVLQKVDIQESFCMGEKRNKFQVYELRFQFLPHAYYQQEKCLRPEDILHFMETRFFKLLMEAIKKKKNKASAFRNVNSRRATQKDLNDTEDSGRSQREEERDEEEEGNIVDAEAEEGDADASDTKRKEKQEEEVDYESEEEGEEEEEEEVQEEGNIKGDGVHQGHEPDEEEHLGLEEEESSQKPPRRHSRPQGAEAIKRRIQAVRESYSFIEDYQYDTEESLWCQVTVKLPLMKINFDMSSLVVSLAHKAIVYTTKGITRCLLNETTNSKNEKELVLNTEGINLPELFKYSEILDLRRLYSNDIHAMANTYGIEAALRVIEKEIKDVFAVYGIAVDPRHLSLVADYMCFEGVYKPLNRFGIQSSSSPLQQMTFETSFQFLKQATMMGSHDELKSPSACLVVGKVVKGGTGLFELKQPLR
Method: (§1) CF1 male mice (~30 g) were implanted with 2×10^6 Ehrlich ascites tumor cells, intraperitoneally on Day 0. Compound I was suspended by homogenation in 0.05% polysorbate.80-water and administered intraperitoneally at 10 and 20 mg/kg for 9 days to determine its effectiveness for inhibition of tumor growth. Mice were sacrificed on Day 10, and the ascites fluid was collected from the peritoneal cavity. The volume and ascrit (packed cell volume) were determined for each animal and the percent inhibition of tumor growth was calculated. For the metabolic studies, mice were treated on Days 8 and 9 with 10 mg/kg of Compound I, intraperitoneally. The animal was sacrificed on Day 10 and the ascites fluid harvested. The in vitro metabolic studies were performed at 0.25, 0.50 and 1 mmol final concentration of Compound I.
In vitro and in vivo nuclear deoxyribonucleic acid polymerase activity was determined on isolated Ehrlich ascites cell nuclei. The incubation was that described by Sawada et al [Can. Res., 34, 3341 (1974)] except that [methyl-^3 H] deoxythymidine triphosphate (82.4 Ci/mmol) was used. The acid insoluble nucleic acid was collected on GF/F filters and counted. Nuclear ribonucleic acid polymerase activities were determined on enzymes isolated from nuclei. […] The acid insoluble ribonucleic acid was collected on nitrocellulose filters and counted.

[2] = test system: deoxyribonucleic acid synthesis of Ehrlich ascites cells; assay: In vivo thymidine incorporation into deoxyribonucleic acid; parameters: species or system mouse
Method: as §1, with “The in vitro metabolic studies were performed at 0.25, 0.50 and 1 mmol final concentration of Compound I.” left out
For in vivo studies, incorporation of thymidine into deoxyribonucleic acid was determined by the method of Chae et al [Proc. Am. […] The deoxyribonucleic acid was isolated and the tritium content was determined in a toluene based scintillation fluid. The deoxyribonucleic acid concentration was determined by the diphenylamine reaction using calf thymus deoxyribonucleic acid as a standard. Uridine incorporation into ribonucleic acid was determined using 10 μCi of 5,6-^3 H-uridine (22.4 Ci/mmol). […] Leucine incorporation into protein was determined by the method of Sartorelli [Biochem. Biophys. […] Protein content was determined by the Lowry procedure using bovine serum albumin as a standard.

[3] = test system: purine de novo synthesis of Ehrlich ascites cells; assay: In vivo formate incorporation into purines; parameters: species or system mouse
Method: as §1, with “The animal was sacrificed on Day 10 and the ascites fluid harvested. The in vitro metabolic studies were performed at 0.25, 0.50 and 1 mmol final concentration of Compound I.” left out
Carbamyl phosphate synthetase activity was determined using the reaction medium of Kalman et al [Am. […] Citrulline formed from ornithine was measured at 490 nm by the method of Archibald [J. Biol. Chem., 156, 121 (1944)]. […] The ^14 CO2 generated in 15 min was trapped in 1M KOH and counted. Thymidylate synthetase activity was determined using a post-mitochondrial supernatant (9000 g×10 min) and 5 μCi of 5-^3 H-deoxyuridine monophosphate (14 Ci/mmol) according to the method of Kampf et al [ J. Med. Chem., 19, 903 (1976)]. ^14 C-Formate incorporation into purines was determined by the method of Spassova et al [Biochem. Pharmacol., 25, 923 (1976)] using 0.5 μCi of ^14 C-formic acid (52.0 mCi/mmol). […] The Rf value for xanthine monophosphate was scraped and counted. […]

[4] = 10 mg/kg/day I.P. on Days 8 and 9

Q: What does the source list for “{Cu[(CH3)3 N.BH2 CO2 ]2.(CH3)3 N.BH2 COOH} [Compound I]”?
A: ribosomal ribonucleic acid polymerase inhibition [1]: not inhibited; 3H-Thymidine incorporation into deoxyribonucleic acid [2, 4]: 43 ± 5 % Control; thymidine incorporation into deoxyribonucleic acid inhibited ([2]; 10 day Ehrlich ascites cells): 57%; 14C-Formate incorporation into purines [3, 4]: 59 ± 6 % Control; Purine de novo synthesis inhibited ([3]; 10 day Ehrlich ascites cells): 41%
